Results taken from US4307112A, “9-Deoxy-9A-methylene isosteres of PGI2 and process for their preparation” (Farmitalia Carlo Erba S.p.A., priority 1978, dated 1981).
Converted amounts (≈) assume the structure as drawn. “Also recorded” adds a separate entry of the source. Where two headings read alike, the source gives them in different places.

Columns and labels:
[1] = product of reaction of PGI2 with acid; cited from earlier work
anaesthetized rat = experiment: hypotensive effect on the anaesthetized rat; type: in vivo; conditions: PGI2 = 100
platelet aggregation = experiment: in vitro inhibitory effect on platelet aggregation induced by 10 μM ADP in platelet rich plasma; type: cell-based; conditions: for IC50: read-out: in vitro antiaggregant effect IC50 (50% platelet aggregation inhibiting concentration)
Description: IC50 = 50% platelet aggregation inhibiting concentration.

[2] = antiulcerogenic activity compared with PGI2 at equi-active antiaggregant doses; type: in vivo
[3] = acid; enol ether; listed as natural prostacyclin; cited from earlier work
uterus [4] = conditions: monkey; cited from earlier work
gastric mucous membrane = conditions: ulcers induced by e.g. acetyl salicylic acid and indomethacin; test animals, e.g. the rat; cited from earlier work
uterus [5] = conditions: person; cited from earlier work
test animals = conditions: cited from earlier work
man = conditions: infused in man; cited from earlier work
asthmatic patients = conditions: inhaled; cited from earlier work
blood platelet = conditions: infused in man; cited from earlier work
hamster = experiment: in vitro luteolytic activity in the hamster compared with PGI2 at equally active antiaggregant doses
[6] = 10 μM ADP, platelet rich plasma

## CCCCC[C@H](O)/C=C/[C@@H]1[C@@H](CC(=O)CCCCC(=O)O)[C@@H](O)C[C@H]1O [6-keto-PGF1α]
[1]
  biological activity characteristic of natural prostacyclin: almost none of the biological activity

## CCCCC[C@H](O)/C=C/[C@@H]1[C@H]2C/C(=C/CCCC(=O)O)C[C@H]2C[C@H]1O [(2), 5t,13t-11α,15S-dihydroxy-9a-deoxy-9a-methylene-prostacycla-5,13-dienoic acid]
Anaesthetized rat
  hypotensive effect potency ratio: 1.15
Platelet aggregation; Platelet
  IC50: 0.025 µg/mL (≈ 0.0713 µM)

## dl-5,13t-11α,15S-dihydroxy-9a-deoxy-7-nor-methylene-prostacycla-5,13-dienoic acid
[2]
  antiulcerogenic activity relative to PGI2: ten times greater

## CCCCC[C@H](O)/C=C/[C@@H]1[C@H]2C/C(=C/CCCC(=O)O)O[C@H]2C[C@H]1O [(1), 6,9α-oxide-11α,15(S)-dihydroxy-prosta-5(Z),13(E)-dienoic acid]
[3]
  chemical stability of natural prostacyclin: extremely acid sensitive; also recorded: marked chemical instability
Uterus [4]
  uterus stimulant action: uterus stimulant action
Gastric mucous membrane
  protection of gastric mucous membrane from ulcers: able to protect the gastric mucous membrane from ulcers
Uterus [5]
  uterus stimulant action: uterus stimulant action
Anaesthetized rat
  hypotensive effect potency ratio: 100
Test animals
  luteolytic activity: luteolytic activity
man
  hypotensive and vasodilator activity: hypotensive and vasodilator activity
Asthmatic patients
  prevention of bronchoconstriction: prevents aspecifically induced (e.g. by nebulized water or by effort) bronchocostriction
Blood platelet
  blood platelet anti-aggregant and disaggregant properties: blood platelet anti-aggregant and disaggregant properties
Platelet aggregation; [6]
  IC50: 0.001 µg/mL (≈ 0.00284 µM)

## dl-5,13t-11α,15S-dihydroxy-9a-deoxy-9a,9b-dimethylene-17-cyclohexyl- 18,19,20-trinor-prostacycla-5,13-dienoic acid
hamster
  in vitro luteolytic activity relative to PGI2: 5 times greater

## 5c,13t-11α,15S-dihydroxy-9a-deoxy-9a,7a-homo-dimethylene-16-phenoxy- 17,18,19,20-tetranor,prostacycla-5,13-dienoic acid
hamster
  in vitro luteolytic activity relative to PGI2: 8 times greater

## 5t,13t-11α,15S-dihydroxy-9a-deoxy-9a,7a-homo-dimethylene-prostacycla- 5,13-dienoic acid [(3)]
Anaesthetized rat
  hypotensive effect potency ratio: 0.25
Platelet aggregation; [6]
  in vitro antiaggregant effect IC50 (50% platelet aggregation inhibiting concentration): 20 ηg/ml
